Peptide text beside a SMILES is read from it. * marks the point of attachment. Dansyl = CN(C)c1cccc2c(S(=O)(=O)*)cccc12
Target: T1, N-SH3 E140A (Crkl) (Homo sapiens, UniProt P46109, E140A)
T1 construct: The construct encoding the N-SH3 domain of Crkl was subcloned in a pET28b+ plasmid vector; His-tag; made in house; host or cells: E. coli BL21
Experiment: Stopped-flow kinetic binding, N-SH3 E140A versus C3G277–296
Conditions: pH 7.5, E140A, 50 mM Hepes pH 7.5, 10 °C
Method: We rapidly mixed a constant concentration of C3G277–296 peptide (0.5 µM) versus increasing concentrations of N-SH3 (ranging from 0.5 to 5 µM) and the observed rate constants (kobs) obtained at different ionic strength conditions (buffer Hepes 50 mM, pH 7.0, 0.15 M, 0.3 M, 0.5 M and 1 M NaCl) were plotted as function of concentration of N-SH3 and fitted with a linear equation (Figure 1). By following previously derived equations [19, 20], the dependence of kobs as function of [N-SH3] was fitted with Equation (1), taking into account the non-pseudo-first order conditions, allowing us to calculate the microscopic association rate constant (kon), the microscopic dissociation rate constant (koff) of the binding reaction and the equilibrium dissociation rate constant KD, such as koff/kon. To increase the reliability of the calculated KD, we resorted to directly obtaining a koff value through displacement experiments (Table 1), in which a preincubated complex of N-SH3 domain and dansylated C3G277–296 peptide (at the concentration of 0.5 and 2 µM, respectively) were rapidly mixed versus a high excess of nondansylated peptide (ranging from 20 to 40 µM). In agreement with the theory in [21], the observed rate constants were insensitive to displacer concentration. In all binding and displacement experiments conducted, traces were satisfactorily fitted with a single-exponential equation. (1) kobs=(kon^2∗(2−[NSH3])^2+koff^2+2konkoff(2+[NSH3]))^1/2
Then, we employed D138A, E140A and D141A variants in kinetic binding experiments with C3G, and we explored the effect of increasing ionic strength on the binding reaction of these variants.
Kinetic binding experiments were performed on a single-mixing SX-18 stopped-flow instrument (Applied Photophysics), by mixing a constant concentration (0.5 μM) of C3G dansylated versus increasing concentrations of N-SH3 at 10 °C. Ionic strength dependence of wt N-SH3 was performed with concentrations ranging from 1 to 5 µM for 0 M NaCl condition and from 0.5 to 5 µM for 0.15 M, 0.3 M, 0.5 M and 1 M NaCl, buffer Hepes 50 mM pH 7.0. The excitation wavelength was 280 nm, and fluorescence was collected using a 455 nm cut-off filter. At least, five independent acquisitions were collected and averaged for each experiment. The resulting averages were all satisfactorily fitted with a single-exponential equation. Buffers used for pH dependence were: 50 mM Sodium Acetate pH 5.0, 50 mM Sodium Acetate, pH 5.5, Bis–Tris 50 mM pH 6.0, Bis–Tris 50 mM pH 6.5, Hepes 50 mM pH 7.0, Hepes 50 mM pH 7.5, Tris–HCl 50 mM pH 8.0, Tris–HCl 50 mM pH 8.5, Tris–HCl 50 mM pH 9.0, all with added 0.5 M NaCl. […]

T1 sequence (P46109 123-183 E140A limits assumed): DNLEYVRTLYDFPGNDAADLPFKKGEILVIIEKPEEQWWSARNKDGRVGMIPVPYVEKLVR

kon (0 M NaCl, 0.5 µM dansylated peptide vs 2.0–4.5 µM N-SH3 E140A): 7.8e+07 ± 6e+06 M⁻¹ s⁻¹
kon (0.05 M NaCl, 0.5 µM dansylated peptide vs 3.0–5.5 µM N-SH3 E140A): 8.9e+07 ± 8e+06 M⁻¹ s⁻¹
kon (0.10 M NaCl, 0.5 µM dansylated peptide vs 3.0–5.0 µM N-SH3 E140A): 7.7e+07 ± 8e+06 M⁻¹ s⁻¹
kon (0.15 M NaCl, 0.5 µM dansylated peptide vs 3.0–5.5 µM N-SH3 E140A): 8.1e+07 ± 8e+06 M⁻¹ s⁻¹
Structure (SMILES): CC(C)C[C@H](NC(=O)[C@H](C)NC(=O)[C@@H]1CCCN1C(=O)[C@@H]1CCCN1C(=O)[C@@H]1CCCN1C(=O)[C@H](CO)NC(=O)[C@H](CC(N)=O)NC(=O)[C@H](CC(=O)O)NC(=O)[C@@H](NC(=O)[C@@H](NS(=O)(=O)c1cccc2c(N(C)C)cccc12)C(C)C)C(C)C)C(=O)N1CCC[C@H]1C(=O)N1CCC[C@H]1C(=O)N[C@@H](CCCCN)C(=O)N[C@@H](CCCCN)C(=O)N[C@@H](CCCNC(=N)N)C(=O)N[C@@H](CCC(N)=O)C(=O)N[C@@H](CO)C(=O)N[C@@H](C)C(=O)N1CCC[C@H]1C(=O)N[C@@H](CO)C(=O)O [C3G277–296] (Dansyl-VVDNSPPPALPPKKRQSAPS-OH)

From article PMC8705818, “Experimental Characterization of the Interaction between the N-Terminal SH3 Domain of Crkl and C3G” (International Journal of Molecular Sciences, 2021)
